Earlier results on two compounds are cited in US12551473B2, “Compositions and methods for increasing athletic performance” (VDF Futureceuticals, Inc., priority 2015, dated 2026).

The subject of one data set is skin blood flow. The following applies: during cycling exercise at 55% VO2max.
A further data set has as its system systolic blood pressure. Particulars: 5.5 mmol/day, acute (1 day) and chronic (6 day), during cycling in healthy young men.

With `CN(C)C(=O)Oc1ccc[n+](C)c1` [pyridostigmine], in the data set on skin blood flow, the skin blood flow result is reported as “reduces”.

For `O=[N+]([O-])O` [nitrate], the “reduced systolic blood pressure (mean)” value with systolic blood pressure is recorded as 6 mmHg.
